Assay results taken from ChEMBL document CHEMBL4680201, “Design, synthesis, and pharmacological evaluation of 4- or 6-phenyl-pyrimidine derivatives as novel and selective Janus kinase 3 inhibitors” (Eur J Med Chem, 2020).
Active and inactive are the calls of the source. The calls are words filed in the database; no cut-off is given here.

What was measured:
[1] = target: T1, Tyrosine-protein kinase JAK2 (Homo sapiens, UniProt O60674); test: Inhibition of recombinant human C-terminal His6-tagged JAK2 (808 to end residues) expressed in baculovirus infected Sf21 insect cells using Biotin-TYR1 (Biotin-(Ahx)-GAEEEIYAAFFA-COOH as substrate
Homo sapiens [2] = species: Homo sapiens; test: Selectivity ratio of IC50 for inhibition of recombinant human C-terminal His6-tagged JAK2 (808 to end residues) expressed in baculovirus infected Sf21 insect cells to IC50 for inhibition of recombinant human GST-tagged JAK3 catalytic domain (811 to 1103 residues) expressed in Sf9 insect cells
Homo sapiens [3] = species: Homo sapiens; test: Selectivity ratio of IC50 for inhibition of recombinant human GST-tagged JAK1 catalytic domain (845 to 1142 residues) expressed in Sf9 insect cells to IC50 for inhibition of recombinant human GST-tagged JAK3 catalytic domain (811 to 1103 residues) expressed in Sf9 insect cells
[4] = target: T2, Tyrosine-protein kinase JAK3 (Mus musculus) (UniProt Q62137); test: Inhibition of JAK3 in anti-CD3/-CD28 coated mouse T cells assessed as reduction in IL2-induced STAT5 phosphorylation at 10 uM preincubated for 1 hr followed by IL2 stimulation and measured after 30 mins by Western blot analysis; details: T cell
T2 sequence (whole entry): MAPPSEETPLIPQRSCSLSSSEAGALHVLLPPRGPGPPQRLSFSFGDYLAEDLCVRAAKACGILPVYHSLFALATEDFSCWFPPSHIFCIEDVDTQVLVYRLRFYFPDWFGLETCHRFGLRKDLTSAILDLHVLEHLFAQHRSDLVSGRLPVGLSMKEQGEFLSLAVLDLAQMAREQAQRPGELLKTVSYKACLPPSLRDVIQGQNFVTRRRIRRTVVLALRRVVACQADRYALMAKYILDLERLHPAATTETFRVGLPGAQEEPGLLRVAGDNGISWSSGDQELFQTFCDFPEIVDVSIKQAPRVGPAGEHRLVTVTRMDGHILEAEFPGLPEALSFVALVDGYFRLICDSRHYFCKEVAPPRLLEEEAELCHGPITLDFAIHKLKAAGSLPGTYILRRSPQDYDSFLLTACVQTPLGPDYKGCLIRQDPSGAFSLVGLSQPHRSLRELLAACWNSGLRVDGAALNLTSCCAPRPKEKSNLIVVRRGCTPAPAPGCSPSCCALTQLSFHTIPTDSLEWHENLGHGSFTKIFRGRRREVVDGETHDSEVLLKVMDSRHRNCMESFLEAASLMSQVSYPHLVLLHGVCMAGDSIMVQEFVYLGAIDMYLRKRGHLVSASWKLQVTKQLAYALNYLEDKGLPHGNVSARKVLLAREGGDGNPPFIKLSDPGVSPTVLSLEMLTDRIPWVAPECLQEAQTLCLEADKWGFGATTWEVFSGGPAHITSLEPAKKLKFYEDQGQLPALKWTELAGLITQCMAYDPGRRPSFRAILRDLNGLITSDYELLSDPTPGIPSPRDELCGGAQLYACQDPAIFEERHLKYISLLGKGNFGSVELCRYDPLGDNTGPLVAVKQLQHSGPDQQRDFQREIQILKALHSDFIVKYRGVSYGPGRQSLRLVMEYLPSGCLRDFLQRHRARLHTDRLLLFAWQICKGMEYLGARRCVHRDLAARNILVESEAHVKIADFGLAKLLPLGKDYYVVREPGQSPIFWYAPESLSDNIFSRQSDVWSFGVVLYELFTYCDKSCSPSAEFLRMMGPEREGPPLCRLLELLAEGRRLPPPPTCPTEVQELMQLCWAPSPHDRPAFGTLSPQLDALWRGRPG

[5] = Cytotoxicity against IL-4-treated mouse T cells assessed as reduction in cell viability at 10 uM measured after 72 hrs by MTS assay; format: cell-based
[6] = target: Non-receptor tyrosine-protein kinase TYK2 (Homo sapiens, UniProt P29597); test: Inhibition of recombinant human N-terminal GST-tagged TYK2 cytoplasmic domain (833 to 1187 residues) expressed in baculovirus expression system using TK-substrate-biotin preincubated for 5 mins followed by substrate addition and measured after 30 mins by HTRF assay
[7] = target: T2, Tyrosine-protein kinase JAK3 (Mus musculus); test: Inhibition of JAK3 in anti-CD3/-CD28 coated mouse T cells assessed as reduction in IL15-induced STAT5 phosphorylation at 10 uM preincubated for 1 hr followed by […] and measured after 30 mins by Western blot analysis; details: T cell
[8] = Cytotoxicity against resting mouse T cells assessed as reduction in cell viability at 10 uM measured after 72 hrs by MTS assay; format: cell-based
[9] = target: T3, Tyrosine-protein kinase JAK3 (Homo sapiens, UniProt P52333)
T3 sequence (P52333 whole entry): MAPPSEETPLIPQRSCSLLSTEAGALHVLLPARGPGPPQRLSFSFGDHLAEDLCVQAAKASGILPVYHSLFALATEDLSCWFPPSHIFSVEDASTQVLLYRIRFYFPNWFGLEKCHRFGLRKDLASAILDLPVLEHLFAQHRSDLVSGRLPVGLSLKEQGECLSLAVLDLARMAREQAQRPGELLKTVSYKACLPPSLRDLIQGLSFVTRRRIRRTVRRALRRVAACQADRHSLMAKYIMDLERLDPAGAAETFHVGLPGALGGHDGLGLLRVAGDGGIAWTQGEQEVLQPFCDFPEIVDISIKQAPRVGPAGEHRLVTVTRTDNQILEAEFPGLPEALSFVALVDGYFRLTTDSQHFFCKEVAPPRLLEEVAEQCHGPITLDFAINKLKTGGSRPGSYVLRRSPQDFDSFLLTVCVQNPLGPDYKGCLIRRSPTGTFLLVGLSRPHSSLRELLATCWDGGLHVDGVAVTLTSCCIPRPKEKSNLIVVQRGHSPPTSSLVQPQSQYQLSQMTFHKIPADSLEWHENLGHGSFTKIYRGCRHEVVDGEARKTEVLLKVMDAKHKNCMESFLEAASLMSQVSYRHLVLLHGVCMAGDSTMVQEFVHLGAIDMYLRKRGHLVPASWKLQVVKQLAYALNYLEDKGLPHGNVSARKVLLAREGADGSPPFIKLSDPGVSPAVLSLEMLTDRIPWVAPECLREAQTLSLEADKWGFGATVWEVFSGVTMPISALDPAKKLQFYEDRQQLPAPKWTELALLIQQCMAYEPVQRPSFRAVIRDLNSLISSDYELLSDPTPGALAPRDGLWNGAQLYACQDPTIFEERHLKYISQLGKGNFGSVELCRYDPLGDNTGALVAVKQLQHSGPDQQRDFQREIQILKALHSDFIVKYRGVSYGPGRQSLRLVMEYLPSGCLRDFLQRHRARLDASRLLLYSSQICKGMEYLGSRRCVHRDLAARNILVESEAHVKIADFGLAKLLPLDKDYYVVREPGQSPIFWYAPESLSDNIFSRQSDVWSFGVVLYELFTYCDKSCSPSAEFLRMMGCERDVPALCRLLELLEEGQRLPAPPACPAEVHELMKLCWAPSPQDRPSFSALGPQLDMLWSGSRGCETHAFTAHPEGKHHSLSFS

RAW264.7 = test: Cytotoxicity against mouse RAW264.7 cells assessed as reduction in cell viability at 10 uM measured after 72 hrs by MTS assay; format: cell-based; details: raw264.7, 72 h
[10] = target: T1, Tyrosine-protein kinase JAK2; format: ADME
[11] = target: Tyrosine-protein kinase JAK1 (Homo sapiens, UniProt P23458); test: Inhibition of recombinant human GST-tagged JAK1 cytoplasmic domain (866 to 1154 residues) expressed in baculovirus expression system using TK-substrate-biotin preincubated for 5 mins followed by substrate addition and measured after 30 mins by HTRF assay
Chain of Tyrosine-protein kinase JAK1 (P23458 whole entry, the tested form may be a part): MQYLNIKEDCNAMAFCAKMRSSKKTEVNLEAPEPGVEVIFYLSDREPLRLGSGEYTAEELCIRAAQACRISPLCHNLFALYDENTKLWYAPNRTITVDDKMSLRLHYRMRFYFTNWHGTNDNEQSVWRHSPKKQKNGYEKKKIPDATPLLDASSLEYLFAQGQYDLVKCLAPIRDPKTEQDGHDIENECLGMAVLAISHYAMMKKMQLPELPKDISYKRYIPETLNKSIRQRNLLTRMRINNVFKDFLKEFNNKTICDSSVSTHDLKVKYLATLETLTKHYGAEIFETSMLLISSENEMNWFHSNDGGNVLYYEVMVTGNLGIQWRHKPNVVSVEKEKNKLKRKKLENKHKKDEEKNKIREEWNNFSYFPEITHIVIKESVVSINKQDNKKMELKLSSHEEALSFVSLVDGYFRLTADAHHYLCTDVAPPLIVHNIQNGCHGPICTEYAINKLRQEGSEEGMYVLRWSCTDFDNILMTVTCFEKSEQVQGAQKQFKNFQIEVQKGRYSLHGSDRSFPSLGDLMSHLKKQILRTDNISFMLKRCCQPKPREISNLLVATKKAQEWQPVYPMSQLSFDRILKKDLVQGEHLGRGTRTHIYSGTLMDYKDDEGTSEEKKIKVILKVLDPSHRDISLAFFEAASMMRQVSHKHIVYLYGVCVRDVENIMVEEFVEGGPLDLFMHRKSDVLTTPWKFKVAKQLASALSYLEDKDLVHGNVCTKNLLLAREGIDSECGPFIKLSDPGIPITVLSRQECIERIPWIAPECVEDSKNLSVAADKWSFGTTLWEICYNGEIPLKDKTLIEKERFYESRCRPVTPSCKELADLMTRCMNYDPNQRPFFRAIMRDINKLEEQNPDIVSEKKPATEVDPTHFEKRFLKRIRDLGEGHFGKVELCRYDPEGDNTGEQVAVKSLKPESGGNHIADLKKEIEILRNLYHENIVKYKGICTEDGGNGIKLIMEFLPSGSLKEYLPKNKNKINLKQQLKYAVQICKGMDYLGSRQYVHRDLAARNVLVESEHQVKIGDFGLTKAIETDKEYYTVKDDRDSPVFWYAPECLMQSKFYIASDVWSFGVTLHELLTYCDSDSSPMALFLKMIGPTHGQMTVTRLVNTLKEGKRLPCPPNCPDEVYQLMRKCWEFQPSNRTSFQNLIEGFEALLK

T1 sequence (O60674 whole entry, the tested form may be a part): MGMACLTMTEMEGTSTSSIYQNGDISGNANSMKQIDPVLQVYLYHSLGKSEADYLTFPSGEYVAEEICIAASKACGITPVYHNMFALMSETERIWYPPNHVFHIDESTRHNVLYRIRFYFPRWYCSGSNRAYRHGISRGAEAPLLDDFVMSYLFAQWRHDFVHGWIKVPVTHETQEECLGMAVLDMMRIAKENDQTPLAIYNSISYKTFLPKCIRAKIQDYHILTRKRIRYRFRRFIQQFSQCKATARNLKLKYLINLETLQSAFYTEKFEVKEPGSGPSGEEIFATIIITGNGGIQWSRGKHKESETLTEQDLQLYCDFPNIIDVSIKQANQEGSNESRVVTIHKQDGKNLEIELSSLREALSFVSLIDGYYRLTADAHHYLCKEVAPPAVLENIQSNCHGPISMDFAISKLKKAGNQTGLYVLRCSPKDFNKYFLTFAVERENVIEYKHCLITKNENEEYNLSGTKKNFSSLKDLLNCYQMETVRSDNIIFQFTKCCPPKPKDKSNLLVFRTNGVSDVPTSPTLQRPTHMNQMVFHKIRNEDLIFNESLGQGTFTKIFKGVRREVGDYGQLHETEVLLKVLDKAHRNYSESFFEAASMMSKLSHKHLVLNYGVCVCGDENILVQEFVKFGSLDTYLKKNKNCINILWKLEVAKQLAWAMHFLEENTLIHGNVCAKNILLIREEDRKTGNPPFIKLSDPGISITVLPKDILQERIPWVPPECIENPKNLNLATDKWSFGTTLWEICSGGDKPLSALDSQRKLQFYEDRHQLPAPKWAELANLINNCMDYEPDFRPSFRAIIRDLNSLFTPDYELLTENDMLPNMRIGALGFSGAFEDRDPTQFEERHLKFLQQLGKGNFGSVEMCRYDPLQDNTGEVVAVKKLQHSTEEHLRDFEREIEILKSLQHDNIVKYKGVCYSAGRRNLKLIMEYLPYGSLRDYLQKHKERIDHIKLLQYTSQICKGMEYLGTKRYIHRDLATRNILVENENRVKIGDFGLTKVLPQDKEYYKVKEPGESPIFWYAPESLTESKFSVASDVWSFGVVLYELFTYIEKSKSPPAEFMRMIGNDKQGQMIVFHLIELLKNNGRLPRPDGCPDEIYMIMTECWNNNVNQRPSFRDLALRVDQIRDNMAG
Chain of Non-receptor tyrosine-protein kinase TYK2 (P29597 whole entry, the tested form may be a part): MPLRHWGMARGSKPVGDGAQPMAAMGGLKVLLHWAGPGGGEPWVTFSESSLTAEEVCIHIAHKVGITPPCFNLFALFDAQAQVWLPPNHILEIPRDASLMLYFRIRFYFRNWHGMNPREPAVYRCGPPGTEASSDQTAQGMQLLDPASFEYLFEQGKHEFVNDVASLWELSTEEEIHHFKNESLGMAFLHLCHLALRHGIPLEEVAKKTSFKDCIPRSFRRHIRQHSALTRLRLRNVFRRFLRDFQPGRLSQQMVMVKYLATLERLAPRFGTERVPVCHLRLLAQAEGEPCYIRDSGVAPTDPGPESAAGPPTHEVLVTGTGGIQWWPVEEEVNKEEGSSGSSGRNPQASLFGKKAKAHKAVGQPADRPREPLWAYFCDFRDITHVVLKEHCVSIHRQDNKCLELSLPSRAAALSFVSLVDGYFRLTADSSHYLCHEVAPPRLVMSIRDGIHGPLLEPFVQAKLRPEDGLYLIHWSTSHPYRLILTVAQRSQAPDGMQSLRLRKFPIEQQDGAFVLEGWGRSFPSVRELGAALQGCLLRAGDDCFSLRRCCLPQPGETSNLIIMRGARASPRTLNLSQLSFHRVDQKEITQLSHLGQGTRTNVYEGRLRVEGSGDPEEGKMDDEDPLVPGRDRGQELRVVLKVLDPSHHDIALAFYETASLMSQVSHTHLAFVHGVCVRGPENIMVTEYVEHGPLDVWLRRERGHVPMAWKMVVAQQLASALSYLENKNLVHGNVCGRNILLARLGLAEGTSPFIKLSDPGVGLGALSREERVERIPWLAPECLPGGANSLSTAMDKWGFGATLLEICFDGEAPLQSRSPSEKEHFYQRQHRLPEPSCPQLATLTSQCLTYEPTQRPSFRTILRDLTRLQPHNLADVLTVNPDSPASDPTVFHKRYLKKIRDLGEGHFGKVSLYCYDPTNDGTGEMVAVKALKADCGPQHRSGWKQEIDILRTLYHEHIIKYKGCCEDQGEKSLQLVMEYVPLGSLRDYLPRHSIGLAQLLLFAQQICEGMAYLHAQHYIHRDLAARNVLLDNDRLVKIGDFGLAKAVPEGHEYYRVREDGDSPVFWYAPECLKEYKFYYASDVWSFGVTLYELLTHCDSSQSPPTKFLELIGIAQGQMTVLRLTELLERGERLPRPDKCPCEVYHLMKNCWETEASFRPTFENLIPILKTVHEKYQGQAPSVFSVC

Compound	IC50 [1] [nM]	Ratio IC50 (Homo sapiens [2])	Ratio IC50 (Homo sapiens [3])	inhibition [4]	Activity [5]	IC50 [6] [nM]	inhibition [7]	Activity [8]	IC50 [9] [nM]	Activity (RAW264.7)	IC50 [10] [nM]	IC50 [11] [nM]
CC[C@H]1CN(C(=O)NCC(F)(F)F)C[C@H]1C1C=NC2=CN=C3NC=CC3N21 (some centres not stated)	120	19	49	–	–	–	–	–	–	–	–	–
C/C=C/C(=O)Nc1ccc(-c2ccnc(Nc3ccc(N4CCOCC4)cc3)n2)cc1	–	–	–	Active	Non-Toxic	> 3000	Active	Non-Toxic	6.1	Non-Toxic	1410	1150
